{"source": "ChEMBL document CHEMBL1152504", "about": "“Design and synthesis of membrane fusion inhibitors against the feline immunodeficiency virus” (Bioorg Med Chem, 2009)", "key": {"[1]": {"assay": "Inhibition of Feline immunodeficiency virus UK8 envelope glycoprotein gp40 assessed as inhibition of HR1-HR2 interaction after 1.5 hrs by ELISA"}, "[2]": {"tested_on": "MT4", "assay": "Inhibition of Feline immunodeficiency virus envelope glycoprotein 40-mediated cell fusion between virus-transfected feline thymic lymphoma 3201 cells and human MT4 cells at 10 uM after 7 days", "format": "cell-based"}, "[3]": {"assay": "Inhibition of Feline immunodeficiency virus Shizuoka envelope glycoprotein gp40 assessed as inhibition of HR1-HR2 interaction after 1.5 hrs by ELISA"}, "[4]": {"assay": "Inhibition of Feline immunodeficiency virus Petaluma envelope glycoprotein gp40 assessed as inhibition of HR1-HR2 interaction after 1.5 hrs by ELISA"}, "[5]": {"assay": "Inhibition of Feline immunodeficiency virus Sendai-1 envelope glycoprotein gp40 assessed as inhibition of HR1-HR2 interaction after 1.5 hrs by ELISA"}}, "note": "Activity calls are given as the source filed them. No cut-off for these calls is given here."}
{"compound": "CC[C@H](C)[C@H](NC(=O)CNC(=O)[C@H](CCC(=O)O)NC(=O)[C@H](CCC(=O)O)NC(=O)CNC(=O)[C@H](CCCCN)NC(=O)[C@H](CCCCN)NC(=O)[C@H](CC(N)=O)NC(=O)[C@H](CC(N)=O)NC(=O)[C@H](CCC(=O)O)NC(=O)[C@H](CCC(=O)O)NC(=O)[C@@H](NC(=O)[C@H](CCCCN)NC(=O)[C@H](CCCCN)NC(=O)[C@@H](NC(=O)[C@@H](NC(=O)[C@H](CCC(=O)O)NC(=O)[C@H](CCC(=O)O)NC(=O)[C@H](Cc1ccccc1)NC(=O)[C@H](CCCCN)NC(=O)[C@H](CCCCN)NC(=O)[C@H](CCC(N)=O)NC(=O)[C@H](CC(C)C)NC(=O)[C@H](CCC(=O)O)NC(=O)[C@H](CCC(=O)O)NC(=O)[C@@H](NC(=O)[C@H](CCCCN)NC(=O)[C@H](CCCCN)NC(=O)[C@H](Cc1ccc(O)cc1)NC(=O)[C@H](Cc1c[nH]c2ccccc12)NC(=O)[C@H](CCC(=O)O)NC(=O)[C@H](CCC(=O)O)NC(=O)[C@@H](N)CC(C)C)[C@@H](C)O)[C@@H](C)CC)[C@@H](C)CC)[C@@H](C)CC)C(=O)N[C@@H](CCCCN)C(=O)N[C@@H](CCCCN)C(=O)O", "values": [{"measurement": "IC50", "setting": "[1]", "value": 9.33, "unit": "nM"}, {"measurement": "Activity", "setting": "[2]", "value": "Active"}, {"measurement": "IC50", "setting": "[3]", "value": 78.5, "unit": "nM"}, {"measurement": "IC50", "setting": "[4]", "value": 51.6, "unit": "nM"}, {"measurement": "IC50", "setting": "[5]", "value": 8.87, "unit": "nM"}]}
{"compound": "H-GEETLKKWEEQTKKLEEKFKKIEENIKKNEEQVKKGEEQLKK-OH", "values": [{"measurement": "IC50", "setting": "[4]", "value": "> 10000", "unit": "nM"}]}
{"compound": "H-LEEWYKKTEELQKKFEEIIKKIEENNKKGEEGLKK-OH", "values": [{"measurement": "IC50", "setting": "[1]", "value": 3.38, "unit": "nM"}, {"measurement": "IC50", "setting": "[3]", "value": 19.7, "unit": "nM"}, {"measurement": "IC50", "setting": "[4]", "value": 12.8, "unit": "nM"}, {"measurement": "IC50", "setting": "[5]", "value": 2.53, "unit": "nM"}]}
{"compound": "H-LEEWYKKTEELQKKFEEIIKKIEENNKKVEEGLKK-OH", "values": [{"measurement": "IC50", "setting": "[1]", "value": 5.39, "unit": "nM"}, {"measurement": "IC50", "setting": "[3]", "value": 115, "unit": "nM"}, {"measurement": "IC50", "setting": "[4]", "value": 16.6, "unit": "nM"}, {"measurement": "IC50", "setting": "[5]", "value": 22.6, "unit": "nM"}]}
{"compound": "H-LEEWYKKTEELQKKFEEIIKKIEENSKKGEEGIKK-OH", "values": [{"measurement": "IC50", "setting": "[1]", "value": 443, "unit": "nM"}, {"measurement": "IC50", "setting": "[3]", "value": 203, "unit": "nM"}, {"measurement": "IC50", "setting": "[4]", "value": 200, "unit": "nM"}, {"measurement": "IC50", "setting": "[5]", "value": 42.4, "unit": "nM"}]}
{"compound": "H-LGEWYNQTKDLQQKFYEIIMDIEQNNVQGKKGIQQ-OH", "values": [{"measurement": "IC50", "setting": "[1]", "value": 513, "unit": "nM"}, {"measurement": "Activity", "setting": "[2]", "value": "Active"}, {"measurement": "IC50", "setting": "[3]", "value": 6310, "unit": "nM"}, {"measurement": "IC50", "setting": "[4]", "value": 1260, "unit": "nM"}, {"measurement": "IC50", "setting": "[5]", "value": 183, "unit": "nM"}]}
{"compound": "H-LGEWYNQTKELQQKFYEIIMNIEQNNVQVKKGLQQ-OH", "values": [{"measurement": "IC50", "setting": "[1]", "value": 724, "unit": "nM"}, {"measurement": "IC50", "setting": "[3]", "value": 6310, "unit": "nM"}, {"measurement": "IC50", "setting": "[4]", "value": 708, "unit": "nM"}, {"measurement": "IC50", "setting": "[5]", "value": 646, "unit": "nM"}]}
{"compound": "H-LGEWYNQTKGLQQKFYEIIMDIEQNSVQGKKGIQQ-OH", "values": [{"measurement": "IC50", "setting": "[1]", "value": "> 10000", "unit": "nM"}, {"measurement": "IC50", "setting": "[3]", "value": "> 10000", "unit": "nM"}, {"measurement": "IC50", "setting": "[4]", "value": 2400, "unit": "nM"}, {"measurement": "IC50", "setting": "[5]", "value": 437, "unit": "nM"}]}
{"compound": "H-LRDWYNNTQQLQKKFYEIIYDIEQNNVQGKQGLQQ-OH", "values": [{"measurement": "IC50", "setting": "[1]", "value": 182, "unit": "nM"}, {"measurement": "IC50", "setting": "[3]", "value": 2510, "unit": "nM"}, {"measurement": "IC50", "setting": "[4]", "value": 195, "unit": "nM"}, {"measurement": "IC50", "setting": "[5]", "value": 37.2, "unit": "nM"}]}
{"compound": "H-NEELGKKYEETKKKQEEFYKKIEEIEKKNEEVKKKLEELQKK-OH", "values": [{"measurement": "IC50", "setting": "[4]", "value": 169, "unit": "nM"}]}
{"compound": "H-WEEWDKKIEEYTKKIEELIKKSEEQQKKNEEELKK-OH", "values": [{"measurement": "IC50", "setting": "[4]", "value": "> 10000", "unit": "nM"}]}
